Laboratory results: patent US5989555A, “Extracts of Larrea tridentata having antiviral activity and their use for treating viral infections” (priority 1996, dated 1999)
Several values for one entry are separate records, joined by “and”; a condition that tells them apart may be missing. Equal entries are not always repeated.

Assays:
[1] = test system: HIV-1 Tat protein; assay: cells; assay type: cell-based; conditions: Table 3, samples run in duplicate, each value mean of two determinations; for inhibition at 10 µg/mL / inhibition at 30 µg/mL: Human immunodeficiency virus 1, COS; for inhibition at 10 µg/mL: read-out: % Inhibition of Tat Transactivation, 10 μg/ml; for inhibition at 30 µg/mL: read-out: % Inhibition of Tat Transactivation, 30 μg/ml
Protocol: […] P. Loeffler and J. P. Behr, Meth. Enzymol. 217:599 (1993)). Cells were incubated for 12-15 hours after transfection before the extract was added at the various concentrations noted. The cultures were incubated for 48 hours, after which 250 μl of the culture supernatant was assayed for SEAP activity as described in Example 4.
The SEAP Assay. The "SEcreted Alkaline Phosphatase" assay for Tat transactivation has been described previously (Berger et al., Gene 66:1-10, 1988; Bohan et al., Gene Expression 2(4):391-407, 1992). The details of the entire procedure for the SEAP inhibition assay as used herein have been described (Gnabre et al. Journal of Chromatography A 719:353-364 (1996)).
The secreted alkaline phosphatase analysis was performed as originally described by Berger et al. In this assay, a DNA expression vector wherein a structural gene encoding a secreted alkaline phosphatase is driven by an enhancer-linked promoter is transfected into target cells. The cells are then exposed to compounds which affect the binding/activation of the transcription regulatory proteins, and the amount of SEAP activity in the medium is measured.
As to the alkaline phosphatase assay, briefly, a 250-μl aliquot was removed from COS cell culture supernatants, heated at 65° C. for 5 minutes to selectively inactivate endogenous phosphatase (SEAP is heat stable) and centrifuged in a microfuge for 2 minutes. […] of 2×SEAP assay buffer (1.0 M diethanolamine, pH 9.8; 0.5 mM MgCl2; 10 mM L-homoarginine) was added to 100-μl aliquot of the samples. The solution was mixed and transferred into a 96-well flat-bottom culture dish (Corning). Twenty μl of pre-warmed substrate solution (120 mM p-nitrophenylphosphate dissolved in 1×SEAP assay buffer) were dispensed with a multipipeter into each well containing the reaction mixture. The A405 of the reaction was read at 5-minute intervals at 37° C. for 60 minutes using an EL340i microplate reader (Bio-tek Instruments, Inc.) with 5-second automatic shakings before each reading. The change in absorbance was plotted against time in the standard assay of SEAP induction. In the drug screening assay, the percent inhibition of SEAP expression was calculated at its 30 min endpoint as follows:
% Inhibition=100-[(CT^+ -C^+)/(CT^- -C^-)]×100
The 3-Magi extract was monitored by SiO2 TLC with cerium sulfate charring, 2% CeSO4 (w/V) in 5.6% H2 SO4 (v/v), and by the SEAP assay for anti Tat-TRS activity. For the SEAP assay, test materials were dissolved in 10% DMSO solution made in calcium-free, magnesium-free PBS (Ca--Mg-free PBS). The suspension was centrifuged and the stock solution (10 mg/ml) was filter-sterilized using a Millex-GS […] filter (Millipore). Appropriate dilutions of the stock solution were prepared in a final DMSO concentration of 0.2% in Ca--Mg-free PBS to obtain the various concentrations of test compounds.
The 3-Magi extract prepared as in Examples 1 and 2 was assayed by the SEAP assay for anti Tat-TRS activity. […] Briefly, a day before DNA transfection, Linbro® 24 flat bottom wells of 17-mm diameter plates were pretreated with 0.5 ml sterile solution of 0.1% gelatin. The plates were kept in a tissue culture hood for 1 hour (all transfection steps were performed in the hood, unless otherwise stated). The gelatin solution was aspirated and the plates were washed with 0.5 ml of Iscove's Modified Delbecco's Medium (IMDM) supplemented with 10% fetal calf serum and antibiotics (complete medium). COS cells were seeded at a density of ≈1.5×10^5 cells per 17-mm plate and incubated in a humidified 95% air/5% CO2 incubator at 37° C. DNA transfection was performed at 50-60% cell confluency.

[2] = test system: HIV-LTR; assay: in vitro HIV gene transcription assay (Hela whole-cell extract, pLTR-1CAT template); assay type: biochemical, HIV-1; conditions: for CPM of run off transcription: 329 nt run off, DMSO control 625; for % Transcription (% T): DMSO control = 100
Protocol: This procedure was utilized to test lignans from the creosote bush including Rev.10:7 lignans (FB3 and FB5).
The inhibitory activity of the lignans prepared by the large scale isolation described in FIG. 6 is shown. The activity of the cyclolignans FB3 and FB5 is highlighted. Compounds FB1, FB2 and FB4 were each tested at 100, 120, 140 μg/ml. Rev.10:7 lignans (FB3 and FB5) were tested only at 100, 120 μg/ml.
The DNA used as template was the plasmid pLTR-1CAT, which contains HIV-LTR (-453 to +126) fused to the prokaryotic chloramphenicol acetyltransferase (CAT) gene. Unlabeled nucleoside triphosphates were from Pharmacia, and [α-^32 P]UTP (400 Ci/mmol) from Amersham.
DNA digests were then subjected to twice phenol-chloroform-isoamyl alcohol […] extractions and subsequently precipitated by ethanol. Hela whole-cell extracts (Manley extract) containing the polymerase and the transcription factors was prepared as previously described (Manley et al., Proc. Acad. Sci. USA 77:3855-3859 (1988)).
The transcription assay has been previously described (Bohan et al., Gene Expression 2:391-407 (1992)). Extracts prepared by the method of Manley, described above, (40 μg/reaction) and DNA template (0.4 μg/reaction)were preincubated with 0.4 μl of various concentrations of test compounds for 15 min at 30° C. The in vitro transcription buffer of Manley extract contained 10 mM HEPES (pH 7.9), 50 mM KCl, 0.5 mM EDTA, 1.5 mM […], 6.25 mM MgCl2, and 8.5% glycerol. Unlabeled nucleoside triphosphates and [α-^32 P]UTP (400 Ci/mmol) were mixed and added to the reaction mixture. The final volume of the reaction was brought to 15 μl followed by 1 hour incubation at 30° C. as illustrated in FIG. 9.
The transcription reaction was terminated by addition of 300 μl of stop solution (20 mM tris-HCl (pH 7.8), 150 mM NaCl, and 0.2% SDS), and extracted with equal volume of phenol. RNA in the aqueous phase was precipitated with 2.5 volumes of EtOH and 0.1 volume of 3 M sodium acetate. Following centrifugation, RNA pellets were washed with EtOH, dried and resuspended in 15 μl of denaturation mix containing 50% formamide:50% of 2×TBE, Xylene cyanol and bromophenol blue. The mixture was heated at 90° C. for 3 min, and electrophoresed at 400 V in 4% polyacrylamide (19:1 acrylamide:bisacrylamide) gel containing 7 M urea (prerun at 200 V for 30 min) and 1×TBE. The gel was exposed to Kodak XR-5 film at -70° C. with intensifying screens for autoradiography. Table 4 illustrates the same results in numerical form after radioactivity counts of the 329 nt run off transcription spots.

[3] = 140 μg/ml, estimated from Kodak film of gel after 3 day exposure

| Molecule | % Inhibition of Tat Transactivation ([1]; 30 μg/ml) | inhibition at 10 µg/mL [1] [%] | inhibition at 30 µg/mL [1] [%] | % Inhibitor (100 - % T) ([2]; 100 μg/ml) [%] | CPM of run off transcription ([2]; 100 μg/ml) [CPM] | % Transcription (% T) ([2]; 100 μg/ml) [%] | % Inhibitor (100 - % T) ([2]; 120 μg/ml) [%] | CPM of run off transcription ([2]; 120 μg/ml) [CPM] | % Transcription (% T) ([2]; 120 μg/ml) [%] | % Inhibition of Tat Transactivation ([1]; 10 μg/ml) [%] | % Inhibitor (100 - % T) [2, 3] [%] |
| --- | --- | --- | --- | --- | --- | --- | --- | --- | --- | --- | --- |
| C[C@H]1[C@H](c2ccc(O)cc2)c2cc(O)c(O)cc2C[C@H]1C [FB5, 3'-demethoxy-6-O-demethoxylisoguaiacin] | 87% | 63 | 84 | 40 | 373 | 60 | 58 | 264 | 42 | – | – |
| COc1ccc(C[C@@H](C)[C@@H](C)Cc2ccc(O)c(O)c2)cc1O [FB1, 4'-O-methyl-NDGA] | 99% | 86 | 100 | 0 | 917 | 147 | 0 | 804 | 129 | 82 | > 50 |
| 3'-demethoxy-6-dehydroxy-8-O-demethoxylisoguaiacin [FB3] | 69% and 59% | – | – | 73 | 169 | 27 | 91 | 55 | 9 | – | – |
| COc1cc(CC(C)C(C)Cc2ccc(O)c(O)c2)ccc1O (stereo not drawn) [FB2, 3'-O-methyl-NDGA] | – | 75 | 100 | – | 972 | 155 | 0 | 661 | 106 | 86 | > 90 |
